This is an account of results in PubChem BioAssay (NCI).

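Protocol summary: plate cells (96-well), add compound at 5 concentrations, incubate 48 h, interpolate endpoints linearly. TGI: total growth inhibition.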

The assay has as its system P388/ADR leukemia. As to the kind of experiment: NCI tumour cell line growth inhibition, 48 h.

With `O=C[C@@H](CO)O[C@H](C=O)n1cnc2c(=O)[nH]cnc21`, the TGI was 257 µM.
